Data set [1] addresses T1, Androgen receptor (Homo sapiens, UniProt P10275).
T1 sequence (P10275 whole entry): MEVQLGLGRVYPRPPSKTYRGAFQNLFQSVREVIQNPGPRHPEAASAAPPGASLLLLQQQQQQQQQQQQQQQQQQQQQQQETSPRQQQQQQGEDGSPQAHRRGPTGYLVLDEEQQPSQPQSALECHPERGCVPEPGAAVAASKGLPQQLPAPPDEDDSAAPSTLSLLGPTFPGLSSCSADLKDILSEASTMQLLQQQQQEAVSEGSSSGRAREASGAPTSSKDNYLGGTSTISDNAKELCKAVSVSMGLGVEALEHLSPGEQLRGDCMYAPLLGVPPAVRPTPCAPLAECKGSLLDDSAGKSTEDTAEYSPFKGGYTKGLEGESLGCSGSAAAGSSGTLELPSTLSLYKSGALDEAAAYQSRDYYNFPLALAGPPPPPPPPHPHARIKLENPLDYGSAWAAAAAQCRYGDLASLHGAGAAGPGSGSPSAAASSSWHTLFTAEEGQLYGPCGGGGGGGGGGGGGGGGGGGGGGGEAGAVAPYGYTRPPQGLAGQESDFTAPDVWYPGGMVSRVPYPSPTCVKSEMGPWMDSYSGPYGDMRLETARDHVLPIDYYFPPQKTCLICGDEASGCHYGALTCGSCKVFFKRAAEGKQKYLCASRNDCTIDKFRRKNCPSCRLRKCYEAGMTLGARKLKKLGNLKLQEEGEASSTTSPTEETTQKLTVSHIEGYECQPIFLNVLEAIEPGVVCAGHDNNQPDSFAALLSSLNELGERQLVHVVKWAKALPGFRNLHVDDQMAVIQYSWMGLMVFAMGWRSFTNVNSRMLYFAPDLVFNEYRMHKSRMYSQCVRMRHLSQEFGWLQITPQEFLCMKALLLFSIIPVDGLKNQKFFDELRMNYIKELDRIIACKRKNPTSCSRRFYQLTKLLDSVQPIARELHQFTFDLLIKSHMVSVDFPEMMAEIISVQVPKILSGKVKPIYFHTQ
Nature of the data set: Displacement of [3H]DHT from androgen receptor in human MDA-MB-453 cells. The class given is cell-based.

Data set [2] has as its target T1, Androgen receptor. Nature of the data set: Antagonist activity at androgen receptor in human MDA-MB-453 cells assessed as inhibition of testosterone-induced transactivation. The class given is cell-based.
The test system of data set [3] is Rattus norvegicus. The data set is described as follows: In vivo antagonist activity at androgen receptor in immature rat prostate weight model assessed as testosterone propionate-induced weight of seminal vesicles over full body weight at 30 mg/kg, po qd administered for 4 days relative to testosterone propionate treated control. In kind it is functional. On the set-up: scale not given: the % may be the effect or the level left.

The nature of data set [4]: Plasma concentration in immature rat prostate weight model at 30 mg/kg, po qd administered for 4 days measured 2 hrs post last dose on day 4. The class given is ADME, organism-based.
Data set [5] in a line: AUC (0 to 24 hrs) in BALB/c athymic mouse xenografted with bicalutamide-resistant human CWR22-BMSLD1 cells at 78 mg/kg, po. The class given is ADME, organism-based. On the set-up: time < 24 hr, dose 78 mg/kg, route oral. Conditions: in vivo.
For data set [6], the system named is Rattus norvegicus. The data set is described as follows: In vivo antagonist activity at androgen receptor in immature rat prostate weight model assessed as testosterone propionate-induced weight of seminal vesicles over full body weight at 15 mg/kg, po qd administered for 4 days relative to testosterone propionate treated control. In kind it is functional. On the set-up: scale not given: the % may be the effect or the level left.

A short description of data set [7]: Plasma concentration in immature rat prostate weight model at 15 mg/kg, po qd administered for 4 days measured 2 hrs post last dose on day 4. In kind it is ADME, organism-based.
Data set [8] has as its system Rattus norvegicus. Nature of the data set: In vivo antagonist activity at androgen receptor in immature rat prostate weight model assessed as testosterone propionate-induced weight of seminal vesicles over full body weight at 10 mg/kg, po qd administered for 4 days relative to testosterone propionate treated control. The class given is functional. On the set-up: scale not given: the % may be the effect or the level left.

The subject of data set [9] is Mus musculus. Nature of the data set: Toxicity in BALB/c athymic mouse xenografted with bicalutamide-resistant human CWR22-BMSLD1 cells at 150 mg/kg, po qd for 20 days. The class given is organism-based. Conditions: in vivo, 480 h.
A short description of data set [10]: Plasma concentration in immature rat prostate weight model at 10 mg/kg, po qd administered for 4 days measured 2 hrs post last dose on day 4. In kind it is ADME, organism-based.
Data set [11] in a line: Antitumor activity against bicalutamide-resistant human CWR22-BMSLD1 cells xenografted in BALB/c athymic mouse assessed as tumor growth inhibition at 150 mg/kg, po qd for 20 days measured on last day of dosing relative to control. In kind it is functional. The following applies: 480 h, read-out: TGI.
Data set [12] relates to Rattus norvegicus. The data set is described as follows: In vivo antagonist activity at androgen receptor in immature rat prostate weight model assessed as testosterone propionate-induced weight of seminal vesicles over full body weight at 25 mg/kg, po qd administered for 4 days relative to testosterone propionate treated control. The class given is functional. Further details: scale not given: the % may be the effect or the level left.

A short description of data set [13]: Plasma concentration in immature rat prostate weight model at 25 mg/kg, po qd administered for 4 days measured 2 hrs post last dose on day 4. The class given is ADME, organism-based.
In data set [14] the test system is CWR22-BMSLD1. Nature of the data set: Antitumor activity against bicalutamide-resistant human CWR22-BMSLD1 cells xenografted in BALB/c athymic mouse assessed as tumor stasis at 150 mg/kg, po qd for 20 days. The class given is functional, organism-based.
A short description of data set [15]: Drug metabolism in mouse liver microsomes assessed as oxidative metabolite formation. In kind it is ADME.

The structures appear in SMILES notation. Activity calls are given as the source filed them. No cut-off for these calls is given here.

Consider `C[C@@]12[C@@H]3CC[C@@H](C3O)[C@@H]1CN(c1ccc(C#N)c(C(F)(F)F)c1)S2(=O)=O` (stereo in doubt; 17), for which the Ki in data set [1] was determined as 0.048 µM. Moreover, the concentration for half-maximal inhibition (IC50) in data set [2] was determined as 0.327 µM.

In data set [1], `N#Cc1ccc(N2C[C@H]3[C@H]4CC[C@H](C4)[C@H]3S2(=O)=O)cc1C(F)(F)F` yielded a Ki of 0.003 µM. Moreover, the IC50 in data set [2] was determined as 0.13 µM.

With `C[C@@]12[C@@H](CN(c3ccc(C#N)c(C(F)(F)F)c3)S1(=O)=O)[C@H]1C[C@H](O)[C@@H]2C1`, the Activity in data set [3] is 60%. In [4], this compound showed a concentration at 2 h of 790 nM. The same compound registered an AUC(0-t) at 24 h in data set [5] of over 2 µM·h. In data set [1], the Ki amounted to 0.003 µM. Further, the IC50 in [2] turned out to be 0.106 µM.

As to `C[C@@]12[C@@H]3CC[C@@H](C3)[C@@H]1CN(c1ccc(C#N)c(C(F)(F)F)c1)S2(=O)=O`, in data set [1], the inhibition constant (Ki) amounted to 0.003 µM. Also, the IC50 in data set [2] was 0.073 µM.

Compound `C[C@@]12[C@@H]3CC[C@@H](C3=O)[C@@H]1CN(c1ccc(C#N)c(C(F)(F)F)c1)S2(=O)=O` came in with a Ki in data set [1] of 0.008 µM. The half-inhibitory concentration (IC50) in data set [2] was found to be 0.067 µM.

As to `C[C@@]12[C@H]3C[C@H]([C@H](O)C3)[C@@H]1CN(c1ccc(C#N)c(C(F)(F)F)c1)S2(=O)=O`, in [3], the Activity amounted to 58%. The compound also showed an exposure AUC(0-t) at 24 h in [5] of over 2 µM·h. In addition, the Ki in data set [1] came to 0.028 µM. For the same compound, in data set [2], the IC50 came out at 0.43 µM.

As to `C[C@@]12[C@@H](CN(c3ccc(C#N)c(C(F)(F)F)c3)S1(=O)=O)[C@H]1C[C@H](F)[C@@H]2C1`, the Activity in data set [6] was found to be 65%. In addition, in data set [5], the AUC(0-t) at 24 h was over 2 µM·h. This compound also showed a Ki in data set [1] of 0.008 µM. Further, the IC50 in data set [2] amounted to 0.091 µM. Further, the concentration at 2 h in data set [7] came out at 2800 nM.

Turning to `N#Cc1ccc(N2C[C@H]3[C@H]4CC[C@H](C4)[C@@]3(C(N)=O)S2(=O)=O)cc1C(F)(F)F`, in data set [6], the Activity was determined as 55%. The compound also showed an AUC(0-t) at 24 h in data set [5] of over 2 µM·h. This compound came in with a Ki in [1] of 0.003 µM. The IC50 in [2] came out at 0.055 µM.

In the case of `CNC(=O)[C@@]12[C@@H](CN(c3ccc(C#N)c(C(F)(F)F)c3)S1(=O)=O)[C@H]1C[C@H](F)[C@@H]2C1`, the Activity in [6] is listed as 30%. In data set [5], the AUC(0-t) at 24 h came to 0.0031 µM·h. For the same compound, the affinity in data set [1] corresponds to a Ki of 0.005 µM. For the same compound, the IC50 in data set [2] turned out to be 0.057 µM. In [7], the concentration at 2 h was found to be 2900 nM.

On to `CC(O)(CS(=O)(=O)c1ccc(F)cc1)C(=O)Nc1ccc(C#N)c(C(F)(F)F)c1` (centres undefined) [BICALUTAMIDE], for which the values for the Activity in [8] and in [9] were 41% and “Non-Toxic”, respectively. The concentration at 2 h in data set [10] came to 9500 nM. For the same compound, the inhibition in vivo at 150 mg/kg in data set [11] was 39%.

`CNC(=O)[C@@]12[C@@H]3CC[C@@H](C3)[C@@H]1CN(c1ccc(C#N)c(C(F)(F)F)c1)S2(=O)=O`: in data set [6], the Activity was 51%. Also, the AUC(0-t) at 24 h in [5] is over 2 µM·h. Also, the affinity in [1], expressed as Ki, was 0.003 µM. Also, the IC50 in data set [2] worked out at 0.044 µM. In addition, in [7], the concentration at 2 h is 7250 nM.

On to `C[C@@]12[C@@H]3CC[C@@H](C3O)[C@@H]1CN(c1ccc(C#N)c(C(F)(F)F)c1)S2(=O)=O` (stereo in doubt; 15), for which, in data set [1], the affinity, expressed as Ki, was 0.106 µM. For the same compound, the IC50 in data set [2] worked out at 0.444 µM.

As for `N#Cc1ccc(N2C[C@@H]3[C@@H]([C@@H]4C=C[C@H]3C4)S2(=O)=O)cc1C(F)(F)F`, the Ki in [1] came out at 0.012 µM. Also, the half-maximal inhibitory concentration (IC50) in data set [2] amounted to 0.219 µM.

`CCS(=O)(=O)N[C@@H]1C[C@@]2(C)O[C@]1(C)[C@@H]1C(=O)N(c3ccc(C#N)c(C(F)(F)F)c3)C(=O)[C@@H]12`: the Activity in data set [8] came to 26%. In data set [10], this compound displayed a concentration at 2 h of 4000 nM.

With `C[C@@]12[C@@H]3C=C[C@@H](C3)[C@@H]1CN(c1ccc(C#N)c(C(F)(F)F)c1)S2(=O)=O`, the Activity entry in data set [9] is “Non-Toxic”; in data set [12], 35%. The concentration at 2 h in data set [13] worked out at 50 nM. Also, the result in data set [14] was Active. In addition, the Drug metabolism entry in [15] was “Metabolite_Detected”. For the same compound, in data set [1], the Ki was found to be 0.002 µM. For the same compound, the inhibition in vivo at 150 mg/kg in data set [11] was found to be 87%. Besides, the IC50 in [2] stood at 0.03 µM.

The record behind these values is ChEMBL document CHEMBL3868609, “[2.2.1]-Bicyclic sultams as potent androgen receptor antagonists” (Bioorg Med Chem Lett, 2016).
